The source of these data is PubChem BioAssay AID1419 (Emory University Molecular Libraries Screening Center, 2008).

A short description of this assay: EBV protein-peptide binding inhibitors, dose response, biochemical, fluorescence polarization (AID 1419). The conditions noted are these: cell-free protein-peptide binding, 2 h; for fold change: measured here: P channel fold over control, at 54 µM.

SMILES strings stand for the structures. The source made the active and inactive calls. The rule behind the calls is not given here.

As to `COc1ccc(C2C(C(=O)c3cccs3)=C(O)C(=O)N2c2nncs2)cc1` (stereo unspecified), the IC50 was below 0.42 µM and the fold change turned out to be 13.
Taken in the same sequence, the figures for `CCOc1cc(C=C2C(=O)c3ccccc3C2=O)ccc1OCC(=O)Nc1ccc(C)cc1` were 2.18 µM and 11.6.
Taken in the same sequence, the figures for `COc1ccc(Nc2nc(=O)c3cc([N+](=O)[O-])ccc3s2)cc1` were > 54 µM (inactive) and 0.377.
`CS(=O)(=O)N1N=C(c2ccccc2)CC1c1ccc2c(c1)OCO2` (stereo unspecified): the IC50 is 9.83 µM and the fold change came out at 4.93.
`CC(=O)Nc1ccc2cc3ccc(NC(C)=O)cc3nc2c1`: the half-maximal inhibitory concentration (IC50) is 0.56 µM and the fold change was 12.5.
Taken in the same sequence, the figures for `CCN1CC=C2C(C#N)=C(N)C(C#N)(C#N)[C@H](c3ccoc3)[C@H]2C1` were 7.47 µM and 3.84.
Taken in the same sequence, the figures for `COC(=O)CN1C(=S)N(c2ccc(OC)cc2)C(=O)/C1=C/c1ccc(N2CCOCC2)cc1` were 6.67 µM and 2.83.
As to `CN(C)c1cccc(C(=O)OCc2cc(=O)oc3cc(O)ccc23)c1`, the IC50 was > 54 µM (inactive) and the fold change amounted to 1.01.
Taken in the same sequence, the figures for `Cc1ccc(NC(=O)/C(C#N)=C(\N)C(Cl)(Cl)Cl)nc1` were 0.53 µM and 13.
Taken in the same sequence, the figures for `O=C(Nc1cccc(S(=O)(=O)NC2=NCCC2)c1)c1cc(-c2ccco2)nc2ccccc12` were 2.74 µM and 1.11.
Taken in the same sequence, the figures for `COc1ccc(C(CC(=O)N2CCOCC2)c2c(OC)cc(OC)c3c(-c4ccccc4)cc(=O)oc23)cc1` (stereo unspecified) were > 54 µM (inactive) and 0.973.
Regarding `N#CC1(C#N)CC(C=O)=C(N)C1(C#N)CC(=O)C12CC3CC(CC(C3)C1)C2` (stereo unspecified), the IC50 is > 54 µM (inactive) and the fold change came out at 0.933.
Taken in the same sequence, the figures for `Cc1cc2nc3c(=O)n(Cc4ccccc4)c(=O)[nH]c3nc2cc1N` were below 0.42 µM and 87.1.
Taken in the same sequence, the figures for `O=C(c1ccccc1)c1ccc(O)cc1O` were below 0.42 µM and 48.2.
Taken in the same sequence, the figures for `Cc1cccc(N=Nc2c(O)[nH]c3ccc(F)cc23)c1` were 2.03 µM and 12.
For the compound `CCOC(=O)c1oc2cc(OCC(=O)OC)ccc2c(=O)c1-c1ccc(OC)c(OC)c1`, the IC50 was > 54 µM (inactive) and the fold change worked out at 0.99.
Taken in the same sequence, the figures for `N=C1/C(=C\c2ccc(-c3cccc(C(=O)O)c3)o2)C(=O)N=C2SC=C(c3ccccc3)N12` were 4.25 µM and 1.23.
Taken in the same sequence, the figures for `Nc1cc2nsnc2cc1Br` were 28.6 µM and 1.84.
Taken in the same sequence, the figures for `CCCN1C(=O)/C(=C/C=C2\N(CC)c3ccccc3C2(C)C)SC1=S` were 0.95 µM and 12.
`O=[N+]([O-])c1ccc(-c2cn3nc(-c4ccccc4)c(-c4ccccc4)nc3n2)cc1`: the IC50 is 3.58 µM and the fold change was determined as 21.1.
Taken in the same sequence, the figures for `Cc1ccc2nc(SCC(=O)Nc3ccccc3N3CCOCC3)c(C#N)cc2c1` were > 54 µM (inactive) and 1.02.
Turning to `N#Cc1cccc(NC(=O)CSc2ccc3c4c(cccc24)C(=O)c2ccccc2-3)c1`, the IC50 was 5.72 µM and the fold change was determined as 3.94.
Taken in the same sequence, the figures for `CCN(CC)c1ccc(/C=C(/C#N)c2nc3ccc(C)cc3[nH]2)c(OC(C)C)c1` were 1.51 µM and 22.
Taken in the same sequence, the figures for `COc1cccc(/C(O)=C/c2nc3ccc(C(=O)NCCc4ccc(Cl)cc4)cc3[nH]c2=O)c1` were below 0.42 µM and 12.1.
Taken in the same sequence, the figures for `CC(=O)Nc1ccc2nc3c(=O)n(C)c(=O)n(C)c3nc2c1` were 1 µM and 4.35.
As to `CC1=CC(=C(C#N)c2nc3ccccc3s2)C=C(C)N1c1ccc(F)cc1F`, the half-inhibitory concentration (IC50) was 3.98 µM and the fold change was determined as 11.2.
Taken in the same sequence, the figures for `NS(=O)(=O)c1ccc(N/N=C/c2ccc(O)c(O)c2O)c([N+](=O)[O-])c1` were 3.19 µM and 1.05.
Taken in the same sequence, the figures for `Nc1cc(C(=O)O)c(N)c2c1C(=O)c1ccccc1C2=O` were below 0.42 µM and 4.83.
Taken in the same sequence, the figures for `Oc1oc(-c2ccccc2)nc1C=Nc1cccc2ccccc12` were 7.47 µM and 3.16.
As to `O=c1[nH]c2c(s1)C=Nc1ccccc1N2`, the IC50 was 0.81 µM and the fold change is 9.16.
Taken in the same sequence, the figures for `CCCN(CCC)S(=O)(=O)c1ccc(C(=O)OCCN2C(=O)c3cccc4c(N5CCOCC5)ccc(c34)C2=O)cc1` were 1.5 µM and 96.6.
Taken in the same sequence, the figures for `CN1CCC2(CC1)C1CN(C)CC=C1C(C#N)=C(N)C2(C#N)C#N` (stereo unspecified) were 2.49 µM and 7.69.
Taken in the same sequence, the figures for `CC(=O)Nc1ccc(NC2=Nc3ccccc3N3C2=Nc2c(c(C)nn2-c2ccccc2)C3c2ccccc2)cc1` (stereo unspecified) were 4.1 µM and 3.9.
`Cc1ccc2cc3c(N)c4c(C)ccc(C)c4nc3nc2c1`: the IC50 was 0.92 µM and the fold change turned out to be 6.77.
As for `O=C(N=Nc1c(O)[nH]c2ccc([N+](=O)[O-])cc12)c1cc(-c2ccccc2Cl)nc2ccccc12`, the IC50 was 4.56 µM and the fold change amounted to 1.03.
In the case of `CC(=O)Oc1ccc(C(=O)Nc2cccc(C(=O)c3cccc(NC(=O)c4ccc(OC(C)=O)cc4)c3)c2)cc1`, the IC50 was > 54 µM (inactive) and the fold change was determined as 0.997.
Taken in the same sequence, the figures for `C=C1c2cc(OC)ccc2NC(=O)N1CC` were 8.9 µM and 1.91.
Take `CC1(c2ccc3noc(-c4ccc(F)cc4)c3c2)OCCO1`: the IC50 was 1.53 µM and the fold change came to 3.53.
Taken in the same sequence, the figures for `C=CCN1C(=O)/C(=C/c2ccc(N(C)C)cc2)S/C1=N\c1nnc(CC)s1` were 9.51 µM and 10.2.
Taken in the same sequence, the figures for `OCCNc1nc(Nc2ccc(Br)cc2)nc2ccccc12` were > 54 µM (inactive) and 0.987.
Taken in the same sequence, the figures for `Cc1cc(NS(=O)(=O)c2ccc(NC(=O)c3cc4cc(Br)ccc4oc3=O)cc2)no1` were 13.7 µM and 1.15.
For the compound `C=CCn1c(O)c(N=NC(=O)CNC(=O)/C=C/c2ccco2)c2ccccc21`, the IC50 is > 54 µM (inactive) and the fold change is 0.747.
Taken in the same sequence, the figures for `c1ccc(-c2ccnc3nc(N4CCN(c5ccccc5)CC4)nn23)cc1` were > 54 µM (inactive) and 0.987.
On to `COc1ccc(N/C=C2\C(=O)CCc3c2oc2cc(Cl)c(O)c(Cl)c32)cc1`, for which the IC50 was > 54 µM (inactive) and the fold change came to 11.2.
Taken in the same sequence, the figures for `COc1ccccc1N1C(=O)C2C(C(=O)c3ccccc3)=NN(c3ccccc3)C2C1=O` (stereo unspecified) were 8.66 µM and 8.64.
Taken in the same sequence, the figures for `COc1ccc(S(=O)(=O)NCCc2ccc(F)cc2)cc1` were > 54 µM (inactive) and 0.98.
For the compound `CCOC(=O)/C(=C/c1ccc(N2CCC(c3ccccc3)=N2)cc1)C(C)=O`, the IC50 is 3.78 µM and the fold change is 11.8.
Regarding `COC(OC)c1ccnc(-c2ccc(OC(=O)c3cccs3)cc2)n1`, the IC50 was > 54 µM (inactive) and the fold change worked out at 0.937.
